Where “and” joins values, the source holds several entries; their conditions need not be identical. Equal values may be shown once.
Key:
[1] = compared with mineral salts, for example iron sulphate; cited from earlier work
[2] = different values of pH of the gastrointestinal tract; cited from earlier work
[3] = tested on: patients before the hip arthroplasty operation; test: Test 2: treatment for 10 days after taking 350 ml blood before hip arthroplasty, haematic parameters; type: in vivo; details: individual patients, 'Average' row = mean
Method: For about 10 days, before the hip arthroplasty operation, blood is usually taken from the patients (350 ml) so as to have available, if necessary, a quantity of blood that is sufficient for an autologous transfusion.
10 days after the blood is removed, the haematic parameters of the various patients are assessed, the intervention is performed and then the treatment with iron bisglycinate chelate continues for another 30 days after surgery.

[4] = tested on: reticulocytes of the anaemic patient; test: Test 3: cytofluorometric analysis of reticulocytes in blood samples; type: in vivo; details: for RET_IMM: immature reticulocytes: limits 0.00-0.50; for RETH: reticulocytes with high RNA content, highly immature: limits 0.0-10.0; for RETM: reticulocytes with average RNA content, immature on average: limits 0.0-40.0; for IRF: Immature Reticulocyte Function: limits 0.000-999.000; for MRV: Mean Reticulocyte Volume: limits 0-9999; for CRC: Corrected Reticulocyte Count: limits 0.75-2.30; for MFI: Mean Fluorescence Intensity: limits 5.0-30.0; for RhC/C: reticulocyte haemoglobin content: limits 28.9-33.9; for RETL: reticulocytes without RNA, poorly immature (or mature): limits 65.0-97.0
Method: In order to be able to quantify the increase in reticulocytes, cytofluorometry analyses were conducted on samples of blood taken from the patient both before the treatment with iron bisglycinate chelate (Table 3) and after 20 days of treatment (Table 4).
The cytofluorometric analysis (fluorescence flow cytometry CFM) is conducted here as an assessment of the fluorescence obtained with the step of a laser beam of a sample of cells to be examined; in any case, further conventional techniques can be used for the purpose of the present invention.

[5] = tested on: patients who had to undergo surgery and who suffered from slight sideropenic anaemia; details: t=0, before treatment, individual patients, 'Average' = mean
Method: An experimental study was conducted on patients who had to undergo surgery and who suffered from slight sideropenic anaemia.
The aim of the treatment with iron salts was to restore and/or increase the haemoglobin level before surgery in such a manner as to minimise morbidity and/or mortality after surgery.
5 patients were treated with 2 effervescent tablets (prepared as in example 1) per day of iron bisglycinate chelate for 30 days, equal to 28 mg of iron ion per day and 5 patients were treated with one tablet per day of iron sulphate equal to 105 mg of iron ion.
Heavy bleeding surgery took place 10 days after the start of treatment with the iron derivative, i.e. both with the iron bisglycinate chelate and with iron sulphate and the treatment with said iron derivative continued for the 20 days following surgery.

[6] = tested on: patients before the hip arthroplasty operation; test: Test 2: treatment for 10 days after taking 350 ml blood before hip arthroplasty, haematic parameters; type: in vivo; details: administration of iron sulphate; data in the applicant's possession
[7] = t=20, after 20 days of treatment

NCC(=O)[O-].NCC(=O)[O-].[Fe+2] [Iron bisglycinate chelate]
bioavailability [1]: greater bioavailabilty than mineral salts
stability of the bond (hydrolysis) [2]: does not hydrolyse
Haemoglobin ([3]; t=0, start of treatment after taking 350 ml blood): 12.5 g/100ml and 13.2 g/100ml (2×) and 12.9 g/100ml (2×) and 13.3 g/100ml and 12.7 g/100ml
% Reticulocytes ([3]; t=0): 1.1% (3×) and 0.6% and 2.1% and 1.4% and 0.8%
Ferritin ([3]; t=0): 97 ng/mL and 132 ng/mL and 315 ng/mL and 146 ng/mL and 43 ng/mL and 53 ng/mL and 67 ng/mL
Sideraemia ([3]; t=0): 76 µg/100ml and 67 µg/100ml and 58 µg/100ml and 112 µg/100ml and 75 µg/100ml and 87 µg/100ml
% Reticulocytes ([3]; t=10days, 2 tablets a day): 1.5% and 0.9% and 16% and 23% and 1.2% and 25% and 1.7%
Ferritin ([3]; t=10days, 2 tablets a day): 103 ng/mL and 72 ng/mL and 237 ng/mL and 95 ng/mL and 25 ng/mL and 34 ng/mL and 67 ng/mL
Haemoglobin ([3]; t=10days, 2 tablets a day): 11.8 g/100ml (2×) and 12.7 g/100ml and 12.2 g/100ml and 12.8 g/100ml and 12.9 g/100ml and 12.1 g/100ml
Sideraemia ([3]; t=10days, 2 tablets a day): 58 µg/100ml and 120 µg/100ml and 80 µg/100ml and 62 µg/100ml and 65 µg/100ml and 84 µg/100ml and 69 µg/100ml
increase in the percentage of immature reticulocytes (RET_IMM) ([4]; after 20 days of treatment versus before the treatment): 75%
RET_IMM: immature reticulocytes ([4]; t=0, before treatment): 0.08%
RETH: reticulocytes with high RNA content, highly immature ([4]; t=0, before treatment): 1.8%
RETM: reticulocytes with average RNA content, immature on average ([4]; t=0, before treatment): 9.8%
IRF: Immature Reticulocyte Function ([4]; t=0, before treatment): 0.156
MRV: Mean Reticulocyte Volume ([4]; t=0, before treatment): 86 µm^3
CRC: Corrected Reticulocyte Count ([4]; t=0, before treatment): 1.56%
MFI: Mean Fluorescence Intensity ([4]; t=0, before treatment): 15.1%
RhC/C: reticulocyte haemoglobin content ([4]; t=0, before treatment): 28.1 pg
RETL: reticulocytes without RNA, poorly immature (or mature) ([4]; t=0, before treatment): 88.6%
RET_IMM: immature reticulocytes [4, 7]: 0.14%
RETH: reticulocytes with high RNA content, highly immature [4, 7]: 15.4%
RETM: reticulocytes with average RNA content, immature on average [4, 7]: 32.3%
IRF: Immature Reticulocyte Function [4, 7]: 0.534
MRV: Mean Reticulocyte Volume [4, 7]: 100 µm^3
CRC: Corrected Reticulocyte Count [4, 7]: 1.87%
MFI: Mean Fluorescence Intensity [4, 7]: 29.8%
RhC/C: reticulocyte haemoglobin content [4, 7]: 29.4 pg
RETL: reticulocytes without RNA, poorly immature (or mature) [4, 7]: 52.3%

O=S(=O)([O-])[O-].[Fe+2] [Iron sulphate, reference compound]
Iron [5]: 110 µg/100ml and 85 µg/100ml
Haemoglobin ([5]; bisglycinate 28 mg iron ion/day, sulphate 105 mg iron ion/day): 12.5 g/100ml and 11.6 g/100ml
average reduction of the haemoglobin after taking 350 ml [6]: 1.5 g of Hb

From patent EP2722048B1, “Iron bisglycinate chelate for use in treating anaemia” (Laboratori Baldacci S.p.A., priority 2012, dated 2014)
